# From US9006253B2, “Crystal of 2-(3,4-dichlorobenzyl)-5-methyl-4-oxo-3,4-dihydrothieno[2,3-D]pyrimidine-6-carboxylic acid” (ASKA Pharmaceutical Co., Ltd., priority 2010, dated 2015)
# Where two headings read alike, the source gives them in different places.
# Experiments:
# PDE9 = PDE9 (Homo sapiens, UniProt O76083); settings: as described in WO 2006/135080; cited from earlier work
# PDE5 = PDE5 (Homo sapiens, UniProt O76074); settings: as described in WO 2006/135080; cited from earlier work
# [1] = Thermal stability (decomposition product by HPLC, colour after heating); assay type: physicochemical; settings: 6 hr; for amount of the decomposition product (decarboxylation substance of compound A): HPLC
# Description: Form I crystal obtained in Example 1 and Form II crystal obtained in Example 2 and amorphous compound A obtained in Production Example 1 were heated at 100° C. for 6 hr or 200° C. for 6 hr, and the amount of the decomposition product 2-(3,4-dichlorobenzyl)-5-methyl-4-oxo-3,4-dihydrothieno[2,3-d]pyrimidine (decarboxylation substance of compound A) was measured by HPLC. In the HPLC measurement, the sample was suspended in a mobile phase, dissolved by adding 1 equivalent of aqueous sodium hydroxide and then applied.
# HPLC Measurement Condition measuring apparatus: Waters Alliance HPLC system detector: ultraviolet absorption spectrophotometer (measurement wavelength 225 nm) column: XBridge C18 (Waters) column temperature: constant temperature near 30° C. mobile phase A: acetonitrile mobile phase B: 5 mmol/L ammonium hydrogen carbonate (pH 8.0) gradient method of mobile phase A and mobile phase B: mobile phase A 23% (0 to 15 min), mobile phase A 23%→55% (15 to 30 min), mobile phase A 55% (30 to 50 min)
# [2] = Solubility in 0.5% aqueous Tween80 solution at 37° C.; assay type: physicochemical; settings: for time at which near saturation was reached: stirring; for solubility: value of 3 hr
# Description: Form I crystal obtained in Example 1, Form II crystal obtained in Example 2 and amorphous compound A obtained in Production Example 1 (each 50 mg) were suspended in 0.5% aqueous Tween80 solution (20 mL), sonicated, aqueous 0.5% Tween80 solution (180 mL) was added and the mixture was stirred at 37° C.
# The solubility was measured by HPLC under the same conditions (isocratic method using acetonitrile/5 mmol/L ammonium hydrogen carbonate (pH 8.0) (27:73) for mobile phase) as in Experimental Example 1 at the time points of 0.5 hr, 1 hr, 2 hr, 3 hr, 4 hr, 5 hr, and 6 hr from the start of stirring. As a result, amorphous compound A reached near saturation at about 0.5 hr, Form I crystal reached near saturation at about 1 hr and Form II crystal reached near saturation at about 2 hr. Therefore, the value of 3 hr was taken as the solubility. The results are shown in Table 11 below together with the results of the following Experimental Example 3.
# [3] = Dissolution rate (disc, Paddle Method); assay type: physicochemical; settings: 100 mg disc (diameter 12 mm), 0.5% aqueous Tween80 solution 900 mL, 37° C., Paddle Method 50 rpm
# Description: Form I crystal obtained in Example 1, Form II crystal obtained in Example 2 and amorphous compound A obtained in Production Example 1 (each 100 mg) were compression molded by a tableting machine for IR measurement having a metal mold pre-treated with magnesium stearate, and formed into discs (diameter 12 mm). Each disc was added to 0.5% aqueous Tween80 solution (900 mL, 37° C.), the concentration was measured every 10 minutes up to 1 hr, and every 1 hour after 1 hr up to 3 hr, by HPLC under the same conditions as in Experimental Example 1 (isocratic method using acetonitrile/5 mmol/L ammonium hydrogen carbonate (pH 8.0) (27:73) for mobile phase) while maintaining the temperature at 37° C. according to the dissolution test apparatus Paddle Method (50 rpm), and each dissolution rate was calculated. The results are shown in Table 11 below together with the results of the above-mentioned Experimental Example 2.
# Dog absorption test = assay type: in vivo; settings: 0.3 mg/kg oral administration, average
# Description: Form I crystal, Form II crystal and amorphous form of compound A were subjected to a dog absorption test under the following conditions.
# sample: except for amorphous form, samples of Form I crystal and Form II crystal sieved to have a particle size of 20 to 63 μm by wet classification (two kinds of sieves and flowing water were used) were used.
# Preparation method: 25 mL of water was added to a sample (3 g), and the mixture was gently pulverized in a mortar, classified under pressurization, and draught-dried. As amorphous form, a sample pulverized in agate mortar was used.
# method: 9 dogs, 3×3 crossover, 0.3 mg/kg oral administration
# Photostability test = assay type: physicochemical; settings: xenon lamp 18 million Lxs, exposed to light for 8 hr
# Description: Form I crystal, Form II crystal and amorphous form of compound A were subjected to a photostability test under the following conditions. The results are shown in FIG. 17. light source: xenon lamp 18 million Lxs
# conditions: sample (6 mg) was weighed in a transparent sample bottle, and exposed to light for 8 hr.
# HPLC conditions: same as in Experimental Example 1
# Chain of PDE9 (O76083 whole entry): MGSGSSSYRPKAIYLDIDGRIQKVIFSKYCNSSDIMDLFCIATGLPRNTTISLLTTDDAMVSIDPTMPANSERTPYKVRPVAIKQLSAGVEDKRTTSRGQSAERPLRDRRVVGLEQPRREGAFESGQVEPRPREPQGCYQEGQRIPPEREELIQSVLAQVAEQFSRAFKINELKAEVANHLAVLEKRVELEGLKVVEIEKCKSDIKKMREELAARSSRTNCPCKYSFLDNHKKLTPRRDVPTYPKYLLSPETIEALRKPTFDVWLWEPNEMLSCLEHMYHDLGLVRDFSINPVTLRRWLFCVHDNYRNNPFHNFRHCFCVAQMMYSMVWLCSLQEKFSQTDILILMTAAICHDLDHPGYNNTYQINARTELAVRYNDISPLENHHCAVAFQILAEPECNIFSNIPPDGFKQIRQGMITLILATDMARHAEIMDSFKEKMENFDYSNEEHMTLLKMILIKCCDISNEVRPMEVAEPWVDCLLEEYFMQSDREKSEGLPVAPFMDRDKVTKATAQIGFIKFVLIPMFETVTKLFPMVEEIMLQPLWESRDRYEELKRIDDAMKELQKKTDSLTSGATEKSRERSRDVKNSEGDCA
color of sample ([1]; heated at 100° C.),amount of the decomposition product (decarboxylation substance of compound A) ([1]; heated at 100° C.),color of sample ([1]; heated at 200° C.),amount of the decomposition product (decarboxylation substance of compound A) ([1]; heated at 200° C.),time at which near saturation was reached [2],solubility [2] [µg/mL],dissolution rate [3] [µg/mL/min],AUC0-t (Dog absorption test) [ng·h/mL],AUCinf (Dog absorption test) [ng·h/mL],Cmax (Dog absorption test) [ng/mL],MRT (Dog absorption test) [h],T1/2 (Dog absorption test) [h],Tmax (Dog absorption test) [h],photostability (Photostability test),SMILES,further results
–,–,–,–,–,–,–,–,–,–,–,–,–,–,"Cc1c(C(=O)O)sc2nc(Cc3ccc(Cl)c(Cl)c3)[nH]c(=O)c12 [Compound A, 2-(3,4-dichlorobenzyl)-5-methyl-4-oxo-3,4-dihydrothieno[2,3-d]pyrimidine-6-carboxylic acid]",PDE9 inhibitory action (PDE9): high PDE9 inhibitory action; PDE5 inhibitory action (PDE5): mild PDE5 inhibitory action
white,0%,slight brown,"0.07%,",about 2 hr,10,0.0011,24.2,24.2,3.7,6.89,3.32,3.44,comparatively stable,"Cc1c(C(=O)O)sc2nc(Cc3ccc(Cl)c(Cl)c3)[nH]c(=O)c12 [Form II crystal, 2-(3,4-dichlorobenzyl)-5-methyl-4-oxo-3,4-dihydrothieno[2,3-d]pyrimidine-6-carboxylic acid]",–
slight brown,"0.006%,",pale-brown,"3.42%,",–,37,0.0052,62.9,63.4,10.3,6.31,3.05,3.78,–,"Cc1c(C(=O)O)sc2nc(Cc3ccc(Cl)c(Cl)c3)[nH]c(=O)c12 [Amorphous form, 2-(3,4-dichlorobenzyl)-5-methyl-4-oxo-3,4-dihydrothieno[2,3-d]pyrimidine-6-carboxylic acid]",time at which near saturation was reached ([2]; listed as amorphous compound A): about 0.5 hr; impurity after light exposure (Photostability test; HPLC): exceeding 0.2%
white,0%,slight brown,"0.05%,",about 1 hr,15,0.0017,64.6,65.6,9.1,–,–,–,comparatively stable,"Cc1c(C(=O)O)sc2nc(Cc3ccc(Cl)c(Cl)c3)[nH]c(=O)c12 [Form I crystal, 2-(3,4-dichlorobenzyl)-5-methyl-4-oxo-3,4-dihydrothieno[2,3-d]pyrimidine-6-carboxylic acid]","half-life (Dog absorption test; in vivo, po, 0.3 mg/kg): 3.5 h; MRT (Dog absorption test; in vivo, po, 0.3 mg/kg, read-out: MRT): 6.73 h; Tmax (Dog absorption test; in vivo, po, 0.3 mg/kg, read-out: Tmax): 3.06 h"
